ChEMBL document CHEMBL1201862, “PubChem BioAssay data set” (2004)
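Cultured in 96-well plates, cells were exposed to test compound for 48 hours across five concentrations. At the GI50, growth is halved.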 Active and inactive are the calls of the source. Cut-off read from the data, not from the text of the source: active = GI50 up to about 1.1 µM and inactive = higher.

What was measured:
Assay in all cases: NCI anticancer screen, dose series, 48 h
[1] = tested on: OVCAR-4
[2] = tested on: MCF7
[3] = tested on: SNB-78
[4] = tested on: DMS-114
[5] = tested on: OVCAR-5
[6] = tested on: NCI-H460
[7] = tested on: KM-20L2
[8] = tested on: SF-295
[9] = tested on: DLD-1
[10] = tested on: SK-MEL-5
[11] = tested on: M19-MEL
[12] = tested on: U-251
[13] = tested on: HOP-62
[14] = tested on: KM12
[15] = tested on: HT-29
[16] = tested on: HCC 2998
[17] = tested on: OVCAR-8
[18] = tested on: OVCAR-3
[19] = tested on: SF-268
[20] = tested on: CAKI-1

Measured: GI50

Brc1ccc2[nH]c3c(C4=NCCC4)nccc3c2c1
inactive: [1] 17.1 µM | [2] 9.25 µM | [3] > 100 µM | [4] 14.5 µM | [5] 6.11 µM | [6] 9.95 µM | [7] 8.17 µM | [8] 10.6 µM | [9] 15.5 µM | [10] 8.47 µM | [11] 26.9 µM | [12] 12.5 µM | [13] 11.6 µM | [14] 41.5 µM | [15] 11.2 µM | [16] 12.2 µM | [17] 13.5 µM | [18] 61 µM | [19] 16.1 µM | [20] 19.6 µM
